Measurements from the OPERA property sets (Mansouri et al. 2018).

| logP | SMILES |
| --- | --- |
| 3.44 | CNC12c3ccccc3CC1CCCC2C (stereo unspecified) |
| 3.54 | CNC12CCCCC1Cc1ccc(OC)cc12 (stereo unspecified) |
| 1.84 | CNC12CCC(CN)CC1Cc1ccccc12 (stereo unspecified) |
| 3.51 | CNC12CCCCC1Cc1cc(OC)ccc12 (stereo unspecified) |
| 2.48 | CNCC1CCC2(NC)c3ccccc3CC2C1 (stereo unspecified) |
| 3.8 | CCNC12c3ccccc3CC1CCCC2C (stereo unspecified) |
| 3.79 | C=C1c2ccccc2C2(NC)CCCCC12 (stereo unspecified) |
| 3.77 | CNC12CCCCCC1Cc1ccccc12 (stereo unspecified) |

| SMILES | logP |
| --- | --- |
| CNC12CCCCC1c1ccccc1C2 (stereo unspecified) | 3.43 |
| CNC12CCCCC1Cc1ccccc12 (stereo unspecified) | 3.38 |
| NC12CCCC1Cc1ccccc12 (stereo unspecified) | 2.58 |
